By EC50 is commonly meant the midpoint of the concentration-response curve. One may read the IC50 as the point on the concentration scale where inhibition reaches its midpoint.

Common to all, as to type: cell-based
Assay [1] deals with LPA1 receptor (native, systemic sclerosis dermal fibroblasts) (Homo sapiens, UniProt Q92633). The assay is described as follows: FLIPR calcium flux, primary SSc dermal fibroblasts. The settings on record: agonist; 0.3% fatty acid-free human serum albumin; Gi/Go coupled. In general terms: Calcium assays in cells follow changes in intracellular calcium, usually with a dye or a luminescent sensor.
Chain of LPA1 receptor (native, systemic sclerosis dermal fibroblasts) (Q92633 whole entry): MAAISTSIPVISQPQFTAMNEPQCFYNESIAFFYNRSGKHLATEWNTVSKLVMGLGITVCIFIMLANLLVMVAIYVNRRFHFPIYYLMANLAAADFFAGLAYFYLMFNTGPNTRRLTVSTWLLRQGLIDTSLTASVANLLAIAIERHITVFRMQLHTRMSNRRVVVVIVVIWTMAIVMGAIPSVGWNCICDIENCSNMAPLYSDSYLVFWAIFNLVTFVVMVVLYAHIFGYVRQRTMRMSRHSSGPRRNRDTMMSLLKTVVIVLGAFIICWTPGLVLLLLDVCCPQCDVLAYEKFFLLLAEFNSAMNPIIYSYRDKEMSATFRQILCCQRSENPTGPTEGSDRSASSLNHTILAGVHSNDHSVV

The target of a further assay is T1, LPA3 receptor (Homo sapiens, UniProt Q9UBY5).
T1 sequence (Q9UBY5 1-353): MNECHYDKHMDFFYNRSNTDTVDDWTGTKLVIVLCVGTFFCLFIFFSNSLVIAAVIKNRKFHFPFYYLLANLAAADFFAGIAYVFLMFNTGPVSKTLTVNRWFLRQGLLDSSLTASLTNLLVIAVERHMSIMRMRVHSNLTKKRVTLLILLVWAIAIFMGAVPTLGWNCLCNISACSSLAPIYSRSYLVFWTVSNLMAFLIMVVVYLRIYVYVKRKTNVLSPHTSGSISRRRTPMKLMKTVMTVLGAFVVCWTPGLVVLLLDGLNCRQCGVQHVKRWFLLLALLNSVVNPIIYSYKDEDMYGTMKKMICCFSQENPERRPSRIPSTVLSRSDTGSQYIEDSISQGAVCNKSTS
The experiment in a line: FLIPR calcium flux, CHO cells.

The next assay has as its target LPA5 receptor (Homo sapiens, UniProt Q9H1C0). The experiment in a line: FLIPR calcium flux, CHO cells.
In another assay the target is LPA2 receptor (Homo sapiens, UniProt Q9HBW0). The experiment in a line: FLIPR calcium flux, CHO cells.
Chain of LPA2 receptor (Q9HBW0 whole entry): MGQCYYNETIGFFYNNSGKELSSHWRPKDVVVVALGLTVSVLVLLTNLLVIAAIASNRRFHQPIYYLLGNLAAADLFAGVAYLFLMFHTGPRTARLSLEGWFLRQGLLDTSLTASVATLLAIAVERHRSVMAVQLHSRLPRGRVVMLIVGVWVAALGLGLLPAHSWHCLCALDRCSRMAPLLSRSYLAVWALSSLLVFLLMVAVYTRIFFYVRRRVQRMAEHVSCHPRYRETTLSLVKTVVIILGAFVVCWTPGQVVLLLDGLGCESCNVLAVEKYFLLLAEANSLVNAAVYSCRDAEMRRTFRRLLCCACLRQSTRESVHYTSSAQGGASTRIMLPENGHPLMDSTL

Chain of LPA5 receptor (Q9H1C0 whole entry): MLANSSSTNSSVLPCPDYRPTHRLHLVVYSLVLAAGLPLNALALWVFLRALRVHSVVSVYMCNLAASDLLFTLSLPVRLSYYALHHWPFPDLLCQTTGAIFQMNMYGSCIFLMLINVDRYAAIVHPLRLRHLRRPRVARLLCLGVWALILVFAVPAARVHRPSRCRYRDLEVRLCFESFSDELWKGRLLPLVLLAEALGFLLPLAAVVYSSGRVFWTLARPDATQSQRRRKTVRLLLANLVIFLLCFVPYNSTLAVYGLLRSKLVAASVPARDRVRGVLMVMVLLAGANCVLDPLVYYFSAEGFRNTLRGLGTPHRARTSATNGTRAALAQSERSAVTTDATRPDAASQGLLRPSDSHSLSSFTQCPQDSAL

For `CCCCCCCC/C=C\CCCCCCCC(=O)OC[C@@H](O)COP(=O)(O)O` [LPA 18:1], the EC50 in assay [1] came out at 0.15 ± 0.05 µM.

In the case of `COc1ccc(C(=O)NC2(C(=O)O)Cc3ccccc3C2)cc1OCCc1cccc(C)c1` [SAR100842, 2‐(4‐methoxy‐3‐(2‐m‐tolyl‐ethoxy)‐benzoylamino)‐indan‐2‐carboxylic acid], the IC50 at LPA3 receptor, at LPA5 receptor and on LPA2 receptor was greater than 10 µM throughout.

These data come from paper PMC7443477 (British Journal of Pharmacology, 2020).
